PubChem BioAssay AID330 (DTP/NCI, 2004)
Values joined by “and” are separate entries in the source; they are usually repeats but may differ in a detail not shown here. Equal entries are not always repeated. Inconclusive results and toxic doses are left out. How the source made its calls: active means survival T/C of 150% or more; inactive means T/C below 125% in these data.

Test system: P388 leukemia ip, CD2F1 mice, survival T/C
Test: NCI In Vivo Anticancer Drug Screen. Data for tumor model P388 Leukemia (intraperitoneal) in CD2F1 (CDF1) mice
Details: endpoint: median survival time, higher = longer survival
Outline: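 Mice carrying the transplanted tumor received test compound or vehicle. Survival was recorded in each group, and the value is the treated-group measurement divided by that of the vehicle-treated control group.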

[1] = dose: 100.0 mg/kg/injection, schedule: Q04DX003 (ip), vehicle: saline with Tween-80
[2] = dose: 200.0 mg/kg/injection, schedule: Q04DX003 (ip), vehicle: saline with Tween-80
[3] = dose: 400.0 mg/kg/injection, schedule: Q04DX003 (ip), vehicle: saline with Tween-80
[4] = dose: 12.5 mg/kg/injection, schedule: Q01DX009 (ip), vehicle: saline
[5] = dose: 50.0 mg/kg/injection, schedule: Q01DX009 (ip), vehicle: saline with Tween-80
[6] = dose: 100.0 mg/kg/injection, schedule: Q01DX009 (ip), vehicle: saline with Tween-80
[7] = dose: 200.0 mg/kg/injection, schedule: Q01DX009 (ip), vehicle: saline with Tween-80

Measured: T/C

C[n+]1cc2c3ccccc3ccc2c2ccccc21
inactive: dose: 12.5 mg/kg/injection, schedule: Q04DX003 (ip), vehicle: distilled water + Tween-80 113 % of control | dose: 25.0 mg/kg/injection, schedule: Q04DX003 (ip), vehicle: distilled water + Tween-80 105 % of control

C[N+]1(C)C2CCC1CC(=O)C2
inactive: dose: 12.5 mg/kg/injection, schedule: Q01DX009 (ip), vehicle: suspension in saline 107 % of control | dose: 25.0 mg/kg/injection, schedule: Q01DX009 (ip), vehicle: suspension in saline 107 % of control

CC(C)(C)N1C(=O)[N+](C)(CCCCCC[N+]2(C)N=C([O-])N(C(C)(C)C)C2=O)N=C1[O-] (centres undefined)
inactive: [1] 95 % of control | [2] 100 % of control | [3] 108 % of control

C=C(C)CSc1ncnc2nc[nH]c12
inactive: [1] 104 % of control | [2] 100 % of control | [3] 100 % of control

COc1ccc(C2C(C#N)C(=O)N3C(=O)C(NC(C)=O)=C(O)C23)cc1 (centres undefined)
inactive: dose: 100.0 mg/kg/injection, schedule: Q01DX001 (ip), vehicle: saline 94 % of control | dose: 200.0 mg/kg/injection, schedule: Q01DX001 (ip), vehicle: saline 95 % of control | dose: 400.0 mg/kg/injection, schedule: Q01DX001 (ip), vehicle: saline 97 % of control

Cc1cccc(C(=O)CC[N+](C)(C)C)c1
inactive: dose: 3.13 mg/kg/injection, schedule: Q01DX009 (ip), vehicle: saline 111 % of control | dose: 6.25 mg/kg/injection, schedule: Q01DX009 (ip), vehicle: saline 109 % of control | [4] 94 % of control

C=C1COC(=O)C12CC1CCCC(C)C1(C)C2 (centres undefined)
inactive: dose: 4.0 mg/kg/injection, schedule: Q01DX009 (ip), vehicle: Klucel (hydroxypropylcellulose) (HPC) 93 % of control | dose: 8.0 mg/kg/injection, schedule: Q01DX009 (ip), vehicle: Klucel (hydroxypropylcellulose) (HPC) 96 % of control | dose: 16.0 mg/kg/injection, schedule: Q01DX009 (ip), vehicle: Klucel (hydroxypropylcellulose) (HPC) 94 % of control | dose: 32.0 mg/kg/injection, schedule: Q01DX009 (ip), vehicle: Klucel (hydroxypropylcellulose) (HPC) 102 % of control

CCCC(=O)Nc1nc2ccc([N+](=O)[O-])cc2s1
inactive: dose: 12.5 mg/kg/injection, schedule: Q01DX009 (ip), vehicle: saline with Tween-80 106 % of control | [4] 97 % of control | dose: 25.0 mg/kg/injection, schedule: Q01DX009 (ip), vehicle: saline with Tween-80 97 % of control | dose: 25.0 mg/kg/injection, schedule: Q01DX009 (ip), vehicle: saline 98 % of control | [5] 99 % of control and 123 % of control | dose: 50.0 mg/kg/injection, schedule: Q01DX009 (ip), vehicle: saline 98 % of control | [6] 110 % of control and 96 % of control | dose: 100.0 mg/kg/injection, schedule: Q01DX009 (ip), vehicle: saline 101 % of control | [7] 108 % of control

CCO/C=C1/N=C(Cc2ccccc2)OC1=O
inactive: dose: 60.0 mg/kg/injection, schedule: Q01DX005 (ip), vehicle: saline + Tween-80 + alcohol 100 % of control | dose: 120.0 mg/kg/injection, schedule: Q01DX005 (ip), vehicle: saline + Tween-80 + alcohol 94 % of control

COC(=O)C1=C(C)NC(C)=C(C(=O)OC)C1c1ccc(Cl)c([N+](=O)[O-])c1
inactive: dose: 50.0 mg/kg/injection, schedule: Q01DX005 (ip), vehicle: saline with Tween-80 99 % of control | dose: 100.0 mg/kg/injection, schedule: Q01DX005 (ip), vehicle: saline with Tween-80 96 % of control | dose: 200.0 mg/kg/injection, schedule: Q01DX005 (ip), vehicle: saline with Tween-80 92 % of control

COc1cccc(CN2CC(C)N(N=Cc3c4c(O)c5c(O)c(C)c6c(c5c3O)C(=O)C(C)(O/C=C/C(OC)C(C)C(OC(C)=O)C(C)C(O)C(C)C(O)C(C)/C=C/C=C(\C)C(=O)N4)O6)C(C)C2)c1 (centres undefined)
inactive: [5] 96 % of control | [6] 95 % of control | [7] 99 % of control

S=C(NCCCCCCNC(=S)Nc1ccc2ccccc2n1)Nc1ccc2ccccc2n1
inactive: dose: 50.0 mg/kg/injection, schedule: Q01DX009 (ip), vehicle: Klucel (hydroxypropylcellulose) (HPC) 100 % of control | dose: 100.0 mg/kg/injection, schedule: Q01DX009 (ip), vehicle: Klucel (hydroxypropylcellulose) (HPC) 97 % of control | dose: 200.0 mg/kg/injection, schedule: Q01DX009 (ip), vehicle: Klucel (hydroxypropylcellulose) (HPC) 91 % of control

COC(=O)C1c2ccc(OC)c(OC)c2C(=O)N2CCc3cc4c(cc3C12)OCO4 (centres undefined)
inactive: dose: 50.0 mg/kg/injection, schedule: Q04DX003 (ip), vehicle: distilled water + Tween-80 95 % of control | dose: 100.0 mg/kg/injection, schedule: Q04DX003 (ip), vehicle: distilled water + Tween-80 101 % of control | dose: 200.0 mg/kg/injection, schedule: Q04DX003 (ip), vehicle: distilled water + Tween-80 95 % of control | dose: 400.0 mg/kg/injection, schedule: Q04DX003 (ip), vehicle: distilled water + Tween-80 104 % of control

Cc1c(Cl)ccc2c1NC(=O)C2(O)CC(=O)c1ccccc1 (centres undefined)
inactive: dose: 60.0 mg/kg/injection, schedule: Q01DX005 (ip), vehicle: Klucel (hydroxypropylcellulose) (HPC) 99 % of control | dose: 120.0 mg/kg/injection, schedule: Q01DX005 (ip), vehicle: Klucel (hydroxypropylcellulose) (HPC) 97 % of control | dose: 240.0 mg/kg/injection, schedule: Q01DX005 (ip), vehicle: Klucel (hydroxypropylcellulose) (HPC) 99 % of control

CC1(C)CC(=O)C(C(=O)c2ccccc2)=[N+]1[O-]
inactive: dose: 50.0 mg/kg/injection, schedule: Q01DX005 (ip), vehicle: Klucel (hydroxypropylcellulose) (HPC) 97 % of control | dose: 100.0 mg/kg/injection, schedule: Q01DX005 (ip), vehicle: Klucel (hydroxypropylcellulose) (HPC) 100 % of control | dose: 200.0 mg/kg/injection, schedule: Q01DX005 (ip), vehicle: Klucel (hydroxypropylcellulose) (HPC) 99 % of control

O=C1OC(C2OC(=O)C(=O)C2C(=O)c2ccc(Cl)c(Cl)c2)C(C(=O)c2ccc(Cl)c(Cl)c2)C1=O (centres undefined)
inactive: dose: 60.0 mg/kg/injection, schedule: Q01DX005 (ip), vehicle: saline 100 % of control | dose: 120.0 mg/kg/injection, schedule: Q01DX005 (ip), vehicle: saline 96 % of control | dose: 240.0 mg/kg/injection, schedule: Q01DX005 (ip), vehicle: saline 90 % of control

C=CC(=O)NC(C(=O)O)C(C)C (centres undefined)
inactive: dose: 50.0 mg/kg/injection, schedule: Q01DX005 (ip), vehicle: saline 97 % of control | dose: 100.0 mg/kg/injection, schedule: Q01DX005 (ip), vehicle: saline 97 % of control | dose: 200.0 mg/kg/injection, schedule: Q01DX005 (ip), vehicle: saline 100 % of control

O=C(CN1C(=O)c2ccccc2C1=O)NC(Cc1ccccc1)C(=O)O (centres undefined)
inactive: [5] 95 % of control | [6] 105 % of control | [7] 102 % of control | dose: 400.0 mg/kg/injection, schedule: Q01DX009 (ip), vehicle: saline with Tween-80 95 % of control

C=C1C(=O)OC2C1C(OC(=O)/C(=C/C)CO)CC(C)(O)C1CC=C(C)C21 (centres undefined)
inactive: dose: 11.88 mg/kg/injection, schedule: Q01DX005 (ip), vehicle: Klucel (hydroxypropylcellulose) (HPC) 109 % of control | dose: 23.75 mg/kg/injection, schedule: Q01DX005 (ip), vehicle: Klucel (hydroxypropylcellulose) (HPC) 109 % of control | dose: 47.5 mg/kg/injection, schedule: Q01DX005 (ip), vehicle: Klucel (hydroxypropylcellulose) (HPC) 102 % of control

CSc1nc(C#N)c(N)s1
inactive: dose: 60.0 mg/kg/injection, schedule: Q01DX005 (ip), vehicle: saline with Tween-80 101 % of control | dose: 120.0 mg/kg/injection, schedule: Q01DX005 (ip), vehicle: saline with Tween-80 95 % of control | dose: 240.0 mg/kg/injection, schedule: Q01DX005 (ip), vehicle: saline with Tween-80 95 % of control

COC1=C(C)C(=O)c2c(c(/C=N/NC(N)=S)c(Cl)n2C)C1=O
inactive: dose: 100.0 mg/kg/injection, schedule: Q01DX001 (ip), vehicle: saline with Tween-80 103 % of control | dose: 200.0 mg/kg/injection, schedule: Q01DX001 (ip), vehicle: saline with Tween-80 93 % of control | dose: 400.0 mg/kg/injection, schedule: Q01DX001 (ip), vehicle: saline with Tween-80 96 % of control
